# Test results as given in US8124766B2, “Inhibitors of diacylglycerol acyltransferase” (Madrigal Pharmaceuticals, Inc., priority 2008, dated 2012).
# Test system: DGAT
# Test: DGAT Phospholipid FlashPlate Assay
# Type: biochemical
# Conditions: DGAT pellet, DAG-coated PL-FlashPlate, 14C-Pal-CoA, 37° C. for 1 hour; read-out: DGAT Inhibition Activity IC50
# Procedure: DGAT Phospholipid FlashPlate Assay
# Materials for the assay were: PL-FlashPlate: Phospholipid FlashPlates from PerkinElmer, catalog number SMP108; DAG (1,2-Dioleoyl-sn-glycerol) 10 mM suspended in water containing 0.1% Triton X-100; ^14C-Pal-CoA (palmitoyl coenzyme A, [palmitoyl-1-^14C]) from PerkinElmer, catalog number NEC-555 with a specific activity of 55 mCi/mmol; and DGAT pellet, with a protein concentration of 9.85 mg/ml.
# Aqueous buffers were prepared or purchased as follows: The coating buffer (CB) was purchased from PerkinElmer, catalog number SMP900A; the reaction buffer (RB) was 50 mM Tris-HCl, pH 7.5, 100 mM NaCl, 0.01% BSA in water; the washing buffer (WB) is 50 mM Tris-HCl, pH 7.5, 100 mM NaCl, 0.05% deoxycholic acid sodium salt in water; the dilution buffer (DB) was 50 mM Tris-HCl, pH 7.5, 100 mM NaCl, 1 mM EDTA, 0.2% Triton X-100 in water.
# 1,2-Dioleoyl-sn-glycerol (DAG, 10 mmoles) was diluted to 500 μM with coating buffer (CB). The diluted DAG solution was then added to 384-well PL-FlashPlates at 60 μl per well, and incubated at room temperature for 2 days. The coated plates were then washed twice with washing buffer (WB) before use. Test compounds were serial diluted to 2000, 666.7, 222.2, 74.1, 24.7, 8.2, 2.7 and 0.9 μM in 100% DMSO. Diluted compound were further diluted 10 fold with reaction buffer (RB). ^14C-Pal-CoA was diluted to 8.3 μM with RB. The DGAT pellet was diluted to 0.13 mg protein/ml with dilution buffer (DB) immediately before it was added to the PL-FlashPlates to start the reaction. 20 μl of the RB-diluted compounds (or 10% DMSO in RB for Total and Blank), 15 μl of RB diluted 14C-Pal-CoA and 15 μl of DB diluted DGAT pellet (DB without DGAT for Blanks) were transferred to each well of the PL-FlashPlates. The reaction mixtures were incubated at 37° C. for 1 hour. The reactions were stopped by washing 3 times with WB. Plates were sealed with Top-seal and read on a Topcount instrument.
# Calculation of IC50: The IC50 values for each compound were generated using an Excel template. The Topcount rpm readings of Total and Blank were used as 0% and 100% inhibition. The percent inhibition values of reactions in the presence of compounds were calculated, and plotted against compound concentrations. All data were fitted into a Dose Response One Site model (4 parameter logistic model) as the following: (A+((B−A)/(1+((x/C)^D)))), with A and B as the bottom and top of the curve (highest and lowest inhibition), respectively, and C as IC50 and D as Hill Coefficient of the compound.
row,IC50,SMILES
1,292 nM,"CC(C)(C)OC(=O)N1CCN(c2ccc(NC(=O)c3cc4c(Cl)cccc4s3)cn2)CC1 [Example 1, 4-{5-[(4-Chloro-benzo[b]thiophene-2-carbonyl)-amino]-pyridin-2-yl}-piperazine-1-carboxylic acid tert-butyl ester]"
2,32 nM,"CC(C)(CC(=O)N1CCN(c2ccc(NC(=O)c3cc4c(Cl)cccc4s3)cn2)CC1)C(=O)O [Example 2, 4-(4-{5-[(4-Chloro-benzo[b]thiophene-2-carbonyl)-amino]-pyridin-2-yl}-piperazin-1-yl)-2,2-dimethyl-4-oxo-butyric acid]"
3,479 nM,"CC(C)(C)OC(=O)N1CCN(c2ccc(NC(=O)c3cc4cc(Br)ccc4s3)cn2)CC1 [Example 3, 4-{5-[(5-Bromo-benzo[b]thiophene-2-carbonyl)-amino]-pyridin-2-yl}-piperazine-1-carboxylic acid tert-butyl ester]"
4,85 nM,"CC(C)(CC(=O)N1CCN(c2ccc(NC(=O)c3cc4cc(Br)ccc4s3)cn2)CC1)C(=O)O [Example 4, 4-(4-{5-[(5-Bromo-benzo[b]thiophene-2-carbonyl)-amino]-pyridin-2-yl}-piperazin-1-yl)-2,2-dimethyl-4-oxo-butyric acid]"
5,180 nM,"CCOc1cccc2c1cc(C(=O)Nc1ccc(N3CCN(C(=O)OC(C)(C)C)CC3)nc1)n2CC [Example 5, 4-{5-[(4-Ethoxy-1-ethyl-1H-indole-2-carbonyl)-amino]-pyridin-2-yl}-piperazine-1-carboxylic acid tert-butyl ester]"
6,189 nM,"CCOc1cccc2c1cc(C(=O)Nc1ccc(N3CCN(C(=O)CC(C)(C)C(=O)O)CC3)nc1)n2CC [Example 6, 4-(4-{5-[(4-Ethoxy-1-ethyl-1H-indole-2-carbonyl)-amino]-pyridin-2-yl}-piperazin-1-yl)-2,2-dimethyl-4-oxo-butyric acid]"
7,316 nM,"CCOc1cccc2c1cc(C(=O)Nc1ccc(C3CCN(C(=O)CC(C)(C)C(=O)O)CC3)cc1)n2CC [Example 7, 4-(4-{4-[(4-Ethoxy-1-ethyl-1H-indole-2-carbonyl)-amino]-phenyl}-piperidin-1-yl)-2,2-dimethyl-4-oxo-butyric acid]"
8,528 nM,"CCn1c(C(=O)Nc2ccc(C3CCN(C(=O)CC(C)(C)C(=O)O)CC3)cc2)cc2c(C)cccc21 [Example 8, 4-(4-{4-[(1-Ethyl-4-methyl-4H-indole-2-carbonyl)-amino]-phenyl}-piperidin-1-yl)-2,2-dimethyl-4-oxo-butyric acid]"
9,333 nM,"CCn1c(C(=O)Nc2ccc(C3CCN(C(=O)CC(C)(C)C(=O)O)CC3)cc2)cc2c(Cl)c(Cl)ccc21 [Example 9, 4-(4-{4-[(4,5-Dichloro-ethyl-1H-indole-2-carbonyl)-amino]-phenyl}-piperidin-1-yl)-2,2-dimethyl-4-oxo-butyric acid]"
10,328 nM,"CCCOc1cccc2c1cc(C(=O)Nc1ccc(N3CCN(C(=O)OC(C)(C)C)CC3)nc1)n2CC [Example 10, 4-{5-[(1-Ethyl-4-propoxy-1,1-indole-2-carbonyl)-amino]-pyridin-2-yl}-piperazine-1-carboxylic acid tert-butyl ester]"
11,105 nM,"CCCOc1cccc2c1cc(C(=O)Nc1ccc(N3CCN(C(=O)CC(C)(C)C(=O)O)CC3)nc1)n2CC [Example 11, 4-(4-{5-[(1-Ethyl-4-propoxy-1H-indole-2-carbonyl)-amino]-pyridin-2-yl}-piperazin-1-yl)-2,2-dimethyl-4-oxo-butyric acid]"

row,SMILES,IC50
1,"CCn1c(C(=O)Nc2ccc(N3CCN(C(=O)OC(C)(C)C)CC3)nc2)cc2c(OCC(C)C)cccc21 [Example 12, 4-{5-[(1-Ethyl-4-isobutoxy-1H-indole-2-carbonyl)-amino]-pyridin-2-yl}-piperazine-1-carboxylic acid tert-butyl ester]",273 nM
2,"CCn1c(C(=O)Nc2ccc(N3CCN(C(=O)CC(C)(C)C(=O)O)CC3)nc2)cc2c(OCC(C)C)cccc21 [Example 13, 4-(4-{5-[(1-Ethyl-4-isobutoxy-1H-indole-2-carbonyl)-amino]-pyridin-2-yl}-piperazin-1-yl)-2,2-dimethyl-4-oxo-butyric acid hydrochloric acid]",283 nM
